This note sets out measurements from publication PMC9982066, “Inhibition of Ehrlichia chaffeensis infection by cell-permeable macrocyclic peptides that bind type IV secretion effector Etf-1” (PNAS Nexus, 2023).

The test system of data set [1] is THP-1 cells. As to the kind of experiment: CellTiter-Glo luminescent cell viability assay. As to conditions: 2-day treatment. An excerpt: THP-1 (human promyelocytic leukemia) cells are widely used as E. chaffeensis infection studies of human monocytes in vitro, since initial characterization of infection ([31]).
Fig. 4. Cytotoxicity and proteolytic stability of Etf-1-binding peptides. (A) Effect of Etf-1-binding peptides on the viability of THP-1 cells as determined by CellTiter-Glo luminescent assay. Relative luminescence was plotted as function of the peptide concentration, with the cell viability of DMSO control group set as 100%. (B) Plot of the amount of intact peptide remaining as a function of the incubation time in 25% human serum. All values are normalized to that of peptide at time 0 (100%).
Cytotoxicity of Etf-1-binding peptides was examined by CellTiter-Glo luminescent cell viability assay (Promega, Madison, WI, USA). THP-1 cells were seeded in a transparent 96-well plate at a density of 5 × 10^3 cells/well (100 μL in each well) in RPMI-1640 containing 10% FBS and 1% antibiotics and cultured overnight. Etf-1-binding peptides were serially diluted in DPBS from a DMSO stock and added to the cells with the final concentration of 0–25 μM and a constant final concentration of 0.5% DMSO (v/v). After incubation at 37°C with 5% CO2 for 46 h, the plate was removed and pre-equilibrated to RT before the addition of 100 μL of the CellTiter-Glo 2.0 reagent to each well. The plate was incubated for 15 min on a rotary shaker in the dark, and the luminescence was detected (1-s integration time) on a Tecan Infinite M1000 Pro microplate reader. Relative luminescence was plotted as function of the peptide concentration, with the cell viability of DMSO control group set as 100%.

Data set [2] has as its system E. chaffeensis. As to the kind of experiment: E. chaffeensis infection of THP-1 cells, qPCR of 16S rRNA gene normalized to human actin. The class given is cell-based, Ehrlichia chaffeensis. (In general: In qPCR the cycle at which signal appears reflects the starting amount.)
In data set [3] the target is Etf-1 (Ehrlichia chaffeensis, UniProt Q2GG12). In words: immunofluorescence of native Etf-1 localization in E. chaffeensis-infected RF/6A cells. The class given is cell-based. As to conditions: 2 days. On the procedure: Fig. 7. […] RF/6A cells were seeded onto a coverglass in a 12-well plate for 1 h, and infected with E. chaffeensis (Ech) at ∼30 MOI. […] Cells were fixed in 4% PFA and labeled with rabbit anti-Etf-1 IgG and AF488-conjugated goat anti-rabbit secondary antibody in PGS for 1 h each at RT. DAPI was used to label both host-cell nuclei and Ehrlichia DNAs (pseudocolored in green), and E. chaffeensis organisms were shown as green-colored, round to pleomorphic cocci (arrowhead in panel B) that further clustered as spherical morulae. Thin arrows, E. chaffeensis-containing inclusion; open arrows, filamentous-shaped mitochondria. DeltaVision microscope. […] (D) Percentage of E. chaffeensis inclusions colocalized with Etf-1 were quantified by counting ∼20 cells per group from three independent experiments.
Sequence of Etf-1 (Q2GG12 entry or part of it): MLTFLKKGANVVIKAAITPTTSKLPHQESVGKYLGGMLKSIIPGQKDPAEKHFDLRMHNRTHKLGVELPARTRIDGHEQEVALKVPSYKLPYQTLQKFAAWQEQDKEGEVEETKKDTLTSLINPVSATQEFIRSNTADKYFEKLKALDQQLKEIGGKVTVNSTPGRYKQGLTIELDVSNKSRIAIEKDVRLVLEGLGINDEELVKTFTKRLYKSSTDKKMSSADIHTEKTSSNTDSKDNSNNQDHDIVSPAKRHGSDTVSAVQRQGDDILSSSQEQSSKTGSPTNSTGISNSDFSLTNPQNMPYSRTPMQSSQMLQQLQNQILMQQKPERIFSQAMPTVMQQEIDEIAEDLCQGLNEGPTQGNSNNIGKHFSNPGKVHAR
For mitochondria localization analysis, RF/6A cells were seeded onto a cover glass in a 12-well plate for 3 h, then infected with E. chaffeensis at ∼30 MOI. […] Host-cell and Ehrlichial DNAs were stained with 300 nM DAPI, and fluorescence with differential interference contrast images were observed and captured with a DeltaVision deconvolution microscope (Applied Precision, Issaquah, WA, USA). Percentages of Etf-1 protein colocalization with macrocyclic peptides or E. chaffeensis inclusions were quantified by counting 10–20 cells per group from three independent experiments.

Data set [4] concerns E. chaffeensis. As to the kind of experiment: E. chaffeensis infection of RF/6A cells (numbers and sizes of morulae). Particulars: 10 μM, 2 days. The class given is cell-based, Ehrlichia chaffeensis.
In data set [5] the test system is BECN1 binding to Etf-1. In words: streptavidin magnetic beads pull-down of BECN1 with biotin-Etf-1, Western blot. It counts as biochemical. Particulars: 10 µM peptide. Background: Immunoblotting shows a protein as a band on a membrane.

Each structure is given as a SMILES string. Starred links: 1 amine or outer side, 2 acyl side, 3 side chain; linkers in the order of their positions; H or OH if unused. Positions of bridges follow the written chain, without caps; N, C: chain ends. Non-standard residues stand in square brackets, D forms with d. Residues, ends and D or L forms follow the SMILES beside them. Trimesoyl = O=C(c1cc(C(=O)[*:2])cc(C(=O)[*:3])c1)[*:1]; d2Nal = N[C@H](Cc1ccc2ccccc2c1)C(=O)O; Dap = NC[C@H](N)C(=O)O

Consider `CC(C)C[C@H]1NC(=O)[C@H](CO)NC(=O)[C@H]2CCCN2C(=O)[C@H](CCC(N)=O)NC(=O)[C@H](Cc2c[nH]cn2)NC(=O)[C@H](Cc2ccc(O)cc2)NC(=O)c2cc3cc(c2)C(=O)NC[C@H](NC1=O)C(=O)N[C@@H](Cc1ccccc1)C(=O)N[C@H](Cc1ccc2ccccc2c1)C(=O)N[C@H](CCCNC(=N)N)C(=O)N[C@@H](CCCNC(=N)N)C(=O)N[C@H](CCCNC(=N)N)C(=O)N[C@@H](CCCNC(=N)N)C(=O)N[C@H](C(N)=O)CNC3=O` [Peptide B7, TMA-Tyr-His-Gln-pro-Ser-leu-Dap-Phe-nal-arg-Arg-arg-Arg-Dap] (YHQ[dP]S[dL][Dap]F[d2Nal][dR]R[dR]R[Dap]-NH2; linker N-7-14 via Trimesoyl), for which, in data set [1] (20 μM), the cell viability entry is “slightly reduced the cell viability”. In addition, the cytotoxicity entry in data set [1] (up to 10 μM) is given as “no cytotoxicity”. Further, the “inhibition of E. chaffeensis infection” value in data set [2] (10 μM, 2 days, vs DMSO control) is “significantly inhibited”; in data set [4], “significantly inhibited”. The “dose dependence of inhibition of E. chaffeensis infection” value in data set [2] (1, 5, and 10 μM) is reported as “dose-dependent manner”. Also, the “localization of Etf-1 to E. chaffeensis inclusions” value in data set [3] (10 μM from 3 h pi) is listed as “significantly inhibited the localization”. In addition, the “effect on mitochondrial localization of native Etf-1” value in data set [3] (10 μM) is “did not affect”. Also, the “disruption of BECN1 binding to Etf-1” value in data set [5] (compared to DMSO control) is reported as “disrupted BECN1 binding to Etf-1”. The “BECN1/Etf-1 Ratio” value in data set [5] (band intensities, DMSO control set as 1, Fig. 8B) came to 0.20.
